≈ marks a conversion by molar mass, not a printed value.
Each compound was assayed on Acinetobacter baumannii (assay: Antimicrobial activity against ISAba1 linked with the blaOXA-51-type beta-lactamase harboring Acinetobacter baumannii alpha clonal group isolate 1 expressing ampC, ompA, adeB, adeM by Etest method).
Type: functional

Compound	MIC [µg/mL]
CC(C)(O/N=C(\C(=O)N[C@@H]1C(=O)N2C(C(=O)[O-])=C(C[n+]3ccccc3)CS[C@H]12)c1csc(N)n1)C(=O)O [CEFTAZIDIME]	> 256

What follows are compounds tested on Acinetobacter baumannii (assay: Antimicrobial activity against Acinetobacter baumannii alpha clonal group isolate 2 expressing ampC, ompA, adeB, adeM, aacC1, aadA1 by Etest method).
Type: functional

Compound	MIC [µg/mL]
CC(C)(O/N=C(\C(=O)N[C@@H]1C(=O)N2C(C(=O)[O-])=C(C[n+]3ccccc3)CS[C@H]12)c1csc(N)n1)C(=O)O [CEFTAZIDIME]	> 256

What follows are compounds tested on Acinetobacter baumannii (assay: Antimicrobial activity against Acinetobacter baumannii alpha clonal group isolate 3 expressing ampC, ompA, adeB, adeM, aacC1, aadA1 by Etest method).
Type: functional

Compound	MIC [µg/mL]
CC(C)(O/N=C(\C(=O)N[C@@H]1C(=O)N2C(C(=O)[O-])=C(C[n+]3ccccc3)CS[C@H]12)c1csc(N)n1)C(=O)O [CEFTAZIDIME]	> 256

The compounds below were run on Acinetobacter baumannii (assay: Antimicrobial activity against Acinetobacter baumannii alpha clonal group isolate 4 expressing ampC, ompA, adeB, adeM, aacC1, aadA1 by Etest method).
Type: functional

Compound	MIC [µg/mL]
CC(C)(O/N=C(\C(=O)N[C@@H]1C(=O)N2C(C(=O)[O-])=C(C[n+]3ccccc3)CS[C@H]12)c1csc(N)n1)C(=O)O [CEFTAZIDIME]	> 256

Each compound was assayed on Acinetobacter baumannii (assay: Antimicrobial activity against Acinetobacter baumannii alpha clonal group isolate 5 expressing ampC, ompA, adeB, adeM, aacC1, aadA1 by Etest method).
Type: functional

Compound	MIC [µg/mL]
CC(C)(O/N=C(\C(=O)N[C@@H]1C(=O)N2C(C(=O)[O-])=C(C[n+]3ccccc3)CS[C@H]12)c1csc(N)n1)C(=O)O [CEFTAZIDIME]	> 256

These compounds were tested on Acinetobacter baumannii (assay: Antimicrobial activity against ISAba1 linked with the blaOXA-51-type beta-lactamase harboring Acinetobacter baumannii alpha clonal group isolate 6 expressing ampC, ompA, adeB, adeM, aacC1, aadA1 by Etest method).
Type: functional

Compound	MIC [µg/mL]
CC(C)(O/N=C(\C(=O)N[C@@H]1C(=O)N2C(C(=O)[O-])=C(C[n+]3ccccc3)CS[C@H]12)c1csc(N)n1)C(=O)O [CEFTAZIDIME]	> 256

What follows are compounds tested on Acinetobacter baumannii (assay: Antimicrobial activity against ISAba1 linked with the blaOXA-51-type beta-lactamase harboring Acinetobacter baumannii alpha clonal group isolate 7 expressing ampC, ompA, adeB, adeM, blaSHV-5 by Etest method).
Type: functional

Compound	MIC [µg/mL]
CC(C)(O/N=C(\C(=O)N[C@@H]1C(=O)N2C(C(=O)[O-])=C(C[n+]3ccccc3)CS[C@H]12)c1csc(N)n1)C(=O)O [CEFTAZIDIME]	> 256

These compounds were tested on Acinetobacter baumannii (assay: Antimicrobial activity against ISAba1 linked with the blaOXA-51-type beta-lactamase harboring Acinetobacter baumannii alpha clonal group isolate 8 expressing ampC, ompA, adeB, adeM, aacC1, aadA1 by Etest method).
Type: functional

Compound	MIC [µg/mL]
CC(C)(O/N=C(\C(=O)N[C@@H]1C(=O)N2C(C(=O)[O-])=C(C[n+]3ccccc3)CS[C@H]12)c1csc(N)n1)C(=O)O [CEFTAZIDIME]	96 (≈ 176 µM)

These compounds were tested on Acinetobacter baumannii (assay: Antimicrobial activity against ISAba1 linked with the blaOXA-51-type beta-lactamase harboring Acinetobacter baumannii beta clonal group isolate 9 expressing ampC, ompA, adeB, adeM by Etest method).
Type: functional

Compound	MIC [µg/mL]
CC(C)(O/N=C(\C(=O)N[C@@H]1C(=O)N2C(C(=O)[O-])=C(C[n+]3ccccc3)CS[C@H]12)c1csc(N)n1)C(=O)O [CEFTAZIDIME]	48 (≈ 87.8 µM)

The compounds below were run on Acinetobacter baumannii (assay: Antimicrobial activity against ISAba1 linked with the blaOXA-51-type beta-lactamase harboring Acinetobacter baumannii beta clonal group isolate 10 expressing ompA, adeB, adeM, aacA4, blaSHV-5 by Etest method).
Type: functional

Compound	MIC [µg/mL]
CC(C)(O/N=C(\C(=O)N[C@@H]1C(=O)N2C(C(=O)[O-])=C(C[n+]3ccccc3)CS[C@H]12)c1csc(N)n1)C(=O)O [CEFTAZIDIME]	48 (≈ 87.8 µM)

The compounds below were run on Acinetobacter baumannii (assay: Antimicrobial activity against ISAba1 linked with the blaOXA-51-type beta-lactamase harboring Acinetobacter baumannii beta clonal group isolate 11 expressing ompA, adeB, adeM, blaSHV-5 by Etest method).
Type: functional

Compound	MIC [µg/mL]
CC(C)(O/N=C(\C(=O)N[C@@H]1C(=O)N2C(C(=O)[O-])=C(C[n+]3ccccc3)CS[C@H]12)c1csc(N)n1)C(=O)O [CEFTAZIDIME]	128 (≈ 234 µM)

These compounds were tested on Acinetobacter baumannii (assay: Antimicrobial activity against ISAba1 linked with the blaOXA-51-type beta-lactamase harboring Acinetobacter baumannii beta clonal group isolate 12 expressing ompA, adeB, adeM, aacA4, aacC2, blaSHV-5 by Etest method).
Type: functional

Compound	MIC [µg/mL]
CC(C)(O/N=C(\C(=O)N[C@@H]1C(=O)N2C(C(=O)[O-])=C(C[n+]3ccccc3)CS[C@H]12)c1csc(N)n1)C(=O)O [CEFTAZIDIME]	> 256

What follows are compounds tested on Acinetobacter baumannii (assay: Antimicrobial activity against ISAba1 linked with the blaOXA-51-type beta-lactamase harboring Acinetobacter baumannii beta clonal group isolate 13 expressing ompA, adeB, adeM, aacA4, blaSHV-5 by Etest method).
Type: functional

Compound	MIC [µg/mL]
CC(C)(O/N=C(\C(=O)N[C@@H]1C(=O)N2C(C(=O)[O-])=C(C[n+]3ccccc3)CS[C@H]12)c1csc(N)n1)C(=O)O [CEFTAZIDIME]	> 48

These compounds were tested on Acinetobacter baumannii (assay: Antimicrobial activity against ISAba1 linked with the blaOXA-51-type beta-lactamase harboring Acinetobacter baumannii beta clonal group isolate 14 expressing ompA, adeB, adeM, aacA4, blaSHV-5 by Etest method).
Type: functional

Compound	MIC [µg/mL]
CC(C)(O/N=C(\C(=O)N[C@@H]1C(=O)N2C(C(=O)[O-])=C(C[n+]3ccccc3)CS[C@H]12)c1csc(N)n1)C(=O)O [CEFTAZIDIME]	> 48

What follows are compounds tested on Acinetobacter baumannii (assay: Antimicrobial activity against ISAba1 linked with the blaOXA-51-type beta-lactamase harboring Acinetobacter baumannii beta clonal group isolate 15 expressing ompA, adeB, adeM, aacA4, blaSHV-5 by Etest method).
Type: functional

Compound	MIC [µg/mL]
CC(C)(O/N=C(\C(=O)N[C@@H]1C(=O)N2C(C(=O)[O-])=C(C[n+]3ccccc3)CS[C@H]12)c1csc(N)n1)C(=O)O [CEFTAZIDIME]	> 48

What follows are compounds tested on Acinetobacter baumannii (assay: Antimicrobial activity against ISAba1 linked with the blaOXA-51-type beta-lactamase harboring Acinetobacter baumannii beta clonal group isolate 16 expressing ompA, adeB, adeM, aacA4, blaSHV-5 by Etest method).
Type: functional

Compound	MIC [µg/mL]
CC(C)(O/N=C(\C(=O)N[C@@H]1C(=O)N2C(C(=O)[O-])=C(C[n+]3ccccc3)CS[C@H]12)c1csc(N)n1)C(=O)O [CEFTAZIDIME]	> 48

Each compound was assayed on Acinetobacter baumannii (assay: Antimicrobial activity against ISAba1 linked with the blaOXA-51-type beta-lactamase harboring Acinetobacter baumannii beta clonal group isolate 17 expressing ompA, adeB, adeM, aacA4, blaSHV-5 by Etest method).
Type: functional

Compound	MIC [µg/mL]
CC(C)(O/N=C(\C(=O)N[C@@H]1C(=O)N2C(C(=O)[O-])=C(C[n+]3ccccc3)CS[C@H]12)c1csc(N)n1)C(=O)O [CEFTAZIDIME]	> 48

Each compound was assayed on Acinetobacter baumannii (assay: Antimicrobial activity against ISAba1 linked with the blaOXA-51-type beta-lactamase harboring Acinetobacter baumannii beta clonal group isolate 18 expressing ompA, adeB, adeM, aacA4, blaSHV-5 by Etest method).
Type: functional

Compound	MIC [µg/mL]
CC(C)(O/N=C(\C(=O)N[C@@H]1C(=O)N2C(C(=O)[O-])=C(C[n+]3ccccc3)CS[C@H]12)c1csc(N)n1)C(=O)O [CEFTAZIDIME]	96 (≈ 176 µM)

These compounds were tested on Acinetobacter baumannii (assay: Antimicrobial activity against ISAba1 linked with the blaOXA-51-type beta-lactamase harboring Acinetobacter baumannii zeta clonal group isolate 19 expressing ampC, ompA, adeB, adeM, aacC2 by Etest method).
Type: functional

Compound	MIC [µg/mL]
CC(C)(O/N=C(\C(=O)N[C@@H]1C(=O)N2C(C(=O)[O-])=C(C[n+]3ccccc3)CS[C@H]12)c1csc(N)n1)C(=O)O [CEFTAZIDIME]	24 (≈ 43.9 µM)

What follows are compounds tested on Acinetobacter baumannii (assay: Antimicrobial activity against ISAba1 linked with the blaOXA-51-type beta-lactamase harboring Acinetobacter baumannii zeta clonal group isolate 20 expressing ampC, ompA, adeB, adeM, aacC2 by Etest method).
Type: functional

Compound	MIC [µg/mL]
CC(C)(O/N=C(\C(=O)N[C@@H]1C(=O)N2C(C(=O)[O-])=C(C[n+]3ccccc3)CS[C@H]12)c1csc(N)n1)C(=O)O [CEFTAZIDIME]	24 (≈ 43.9 µM)

Source: ChEMBL document CHEMBL1671617, “Correlation of antimicrobial resistance with beta-lactamases, the OmpA-like porin, and efflux pumps in clinical isolates of Acinetobacter baumannii endemic to New York City” (2008)
